Experimental findings from ChEMBL document CHEMBL1142855, “Hydroxylated N-alkyl-4-piperidinyl-2,3-diarylpyrrole derivatives as potent broad-spectrum anticoccidial agents” (Bioorg Med Chem Lett, 2005) are described below.

pIC50: −log10 of the molar value.

For one experiment, the system named is Eimeria acervulina. The experiment in a line: Anticoccidial activity as percentage reduction in oocyst production in birds infected with Eimeria acervulina after 100 ppm dose. The experiment is classed as functional.
Experiment [1] deals with Eimeria tenella. The experiment in a line: Anticoccidial activity as percentage reduction in oocyst production in birds infected with Eimeria tenella after 100 ppm dose; Range is 50-79%. The experiment is classed as functional.
Experiment [2] has as its system Eimeria tenella. In words: Anticoccidial activity as percentage reduction in oocyst production in birds infected with Eimeria tenella after 100 ppm dose. The experiment is classed as functional.
For experiment [3], the target named is cGMP-dependent protein kinase (Eimeria tenella, UniProt Q8MMZ8). The experiment in a line: Inhibitory activity against cGMP-dependent protein kinase from Eimeria tenella.
Chain of cGMP-dependent protein kinase (Q8MMZ8 whole entry): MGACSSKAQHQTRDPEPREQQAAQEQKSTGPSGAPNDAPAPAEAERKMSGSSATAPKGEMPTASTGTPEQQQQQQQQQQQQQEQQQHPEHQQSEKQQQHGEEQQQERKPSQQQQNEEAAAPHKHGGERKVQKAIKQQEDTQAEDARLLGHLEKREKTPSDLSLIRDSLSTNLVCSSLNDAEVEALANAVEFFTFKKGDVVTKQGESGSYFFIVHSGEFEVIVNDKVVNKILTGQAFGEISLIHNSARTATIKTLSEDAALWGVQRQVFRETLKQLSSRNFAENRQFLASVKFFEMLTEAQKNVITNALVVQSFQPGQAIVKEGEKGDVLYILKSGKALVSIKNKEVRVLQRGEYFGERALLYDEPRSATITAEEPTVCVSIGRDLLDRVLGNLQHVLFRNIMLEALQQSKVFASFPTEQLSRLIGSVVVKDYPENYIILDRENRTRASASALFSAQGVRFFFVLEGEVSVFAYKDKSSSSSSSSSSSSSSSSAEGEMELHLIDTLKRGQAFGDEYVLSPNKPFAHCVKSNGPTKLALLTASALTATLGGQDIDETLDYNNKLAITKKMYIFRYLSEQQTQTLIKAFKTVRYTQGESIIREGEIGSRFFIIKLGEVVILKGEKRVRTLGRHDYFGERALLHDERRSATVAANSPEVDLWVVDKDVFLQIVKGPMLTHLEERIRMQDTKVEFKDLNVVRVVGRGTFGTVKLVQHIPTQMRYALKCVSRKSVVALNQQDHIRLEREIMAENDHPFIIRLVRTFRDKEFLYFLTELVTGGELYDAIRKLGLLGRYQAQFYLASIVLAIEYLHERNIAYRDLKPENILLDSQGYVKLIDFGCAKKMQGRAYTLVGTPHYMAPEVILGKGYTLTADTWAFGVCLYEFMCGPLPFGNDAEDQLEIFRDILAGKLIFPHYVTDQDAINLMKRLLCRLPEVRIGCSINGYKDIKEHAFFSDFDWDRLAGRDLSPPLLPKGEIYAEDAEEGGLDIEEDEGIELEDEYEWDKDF

Regarding `OCCCN1CCC(c2cc(-c3ccncc3)c(-c3ccc(F)cc3)[nH]2)CC1`, the entries for the “Anticoccidial Activity” value in the experiment on Eimeria acervulina and in the experiment on Eimeria tenella [1] were above 80% and 79%, respectively.
Consider `OCCN1CCC(c2cc(-c3ccncc3)c(-c3ccc(F)cc3)[nH]2)CC1`, for which the “Anticoccidial Activity” value with Eimeria acervulina and with Eimeria tenella [2] was above 80% in each case.
As to `CCCN1CCC(c2cc(-c3ccncc3)c(-c3ccc(F)cc3)[nH]2)CC1`, the “Anticoccidial Activity” value with Eimeria acervulina and in the experiment with Eimeria tenella [2] was below 50% in each case.
On to `CC(O)[C@H](CO)N1CCC(c2cc(-c3ccncc3)c(-c3ccc(F)cc3)[nH]2)CC1` (stereo partly specified), for which the “Anticoccidial Activity” value in the experiment with Eimeria acervulina and with Eimeria tenella [2] was above 80% throughout. The same compound had a pIC50 in experiment [3] of 9.09.
On to `OCCCCN1CCC(c2cc(-c3ccncc3)c(-c3ccc(F)cc3)[nH]2)CC1`, for which the “Anticoccidial Activity” value in the experiment with Eimeria acervulina and in the experiment with Eimeria tenella [2] was above 80% each time. Besides, the pIC50 in experiment [3] was 8.87.
For `OC(COCc1ccco1)CN1CCC(c2cc(-c3ccncc3)c(-c3ccc(F)cc3)[nH]2)CC1` (stereo unspecified), the “Anticoccidial Activity” value with Eimeria acervulina and in the experiment with Eimeria tenella [2] was below 50% throughout. The compound further showed a pIC50 in experiment [3] of 9.09.
As for `C[C@H](O)CN1CCC(c2cc(-c3ccncc3)c(-c3ccc(F)cc3)[nH]2)CC1`, the “Anticoccidial Activity” value with Eimeria acervulina and with Eimeria tenella [2] was above 80% throughout. In experiment [3], this compound gave a pIC50 of 9.32.
Take `CCC(O)CN1CCC(c2cc(-c3ccncc3)c(-c3ccc(F)cc3)[nH]2)CC1` (stereo unspecified): the “Anticoccidial Activity” value with Eimeria acervulina and in the experiment with Eimeria tenella [2] was above 80% in each case. The same compound had a pIC50 in experiment [3] of 9.15.
For `CCCC(O)CN1CCC(c2cc(-c3ccncc3)c(-c3ccc(F)cc3)[nH]2)CC1` (stereo unspecified), the “Anticoccidial Activity” value in the experiment with Eimeria acervulina and in the experiment with Eimeria tenella [2] was below 50% throughout. Besides, the pIC50 in experiment [3] was 9.42.
On to `CCOCC(O)CN1CCC(c2cc(-c3ccncc3)c(-c3ccc(F)cc3)[nH]2)CC1` (stereo unspecified), for which the “Anticoccidial Activity” value is above 80% in the experiment on Eimeria acervulina and 79% in the experiment with Eimeria tenella [1]. This compound gave a pIC50 in experiment [3] of 9.23.
Consider `CCCCC(O)CN1CCC(c2cc(-c3ccncc3)c(-c3ccc(F)cc3)[nH]2)CC1` (stereo unspecified), for which the “Anticoccidial Activity” value in the experiment on Eimeria acervulina and in the experiment on Eimeria tenella [2] was below 50% throughout. In experiment [3], this compound showed a pIC50 of 9.39.
As to `CC(O)C(O)CN1CCC(c2cc(-c3ccncc3)c(-c3ccc(F)cc3)[nH]2)CC1` (stereo unspecified), the “Anticoccidial Activity” value with Eimeria acervulina and in the experiment with Eimeria tenella [2] was above 80% throughout. The same compound gave a pIC50 in experiment [3] of 9.40.
As for `OC(Cc1ccccc1)CN1CCC(c2cc(-c3ccncc3)c(-c3ccc(F)cc3)[nH]2)CC1` (stereo unspecified), the “Anticoccidial Activity” value was above 80% in the experiment on Eimeria acervulina and below 50% in the experiment on Eimeria tenella [2]. The compound also showed a pIC50 in experiment [3] of 8.89.
The corresponding values for `OCCCCCN1CCC(c2cc(-c3ccncc3)c(-c3ccc(F)cc3)[nH]2)CC1` are above 80%, above 80% and 8.84.
The corresponding values for `CC(C)(C)OCC(O)CN1CCC(c2cc(-c3ccncc3)c(-c3ccc(F)cc3)[nH]2)CC1` (stereo unspecified) are below 50%, below 50% and 9.01.
The corresponding values for `C=CCOCC(O)CN1CCC(c2cc(-c3ccncc3)c(-c3ccc(F)cc3)[nH]2)CC1` (stereo unspecified) are below 50%, below 50% and 9.10.
As to `OC(COCc1ccccc1)CN1CCC(c2cc(-c3ccncc3)c(-c3ccc(F)cc3)[nH]2)CC1` (stereo unspecified), the “Anticoccidial Activity” value in the experiment on Eimeria acervulina and with Eimeria tenella [2] was below 50% each time. The compound also gave a pIC50 in experiment [3] of 9.33.
As to `COC[C@H](O)CN1CCC(c2cc(-c3ccncc3)c(-c3ccc(F)cc3)[nH]2)CC1`, the “Anticoccidial Activity” value in the experiment on Eimeria acervulina and in the experiment on Eimeria tenella [2] was above 80% throughout. The pIC50 in experiment [3] is 9.16.
Regarding `COC[C@@H](O)CN1CCC(c2cc(-c3ccncc3)c(-c3ccc(F)cc3)[nH]2)CC1`, the “Anticoccidial Activity” value in the experiment with Eimeria acervulina and in the experiment on Eimeria tenella [2] was above 80% each time. Moreover, the pIC50 in experiment [3] was 9.25.
Turning to `CC(=O)N1C[C@H](O)CC1CN1CCC(c2cc(-c3ccncc3)c(-c3ccc(F)cc3)[nH]2)CC1` (stereo partly specified), in experiment [3], the negative logarithm of the IC50 (pIC50) was 8.66.
As to `CC(O)[C@H](C)N1CCC(c2cc(-c3ccncc3)c(-c3ccc(F)cc3)[nH]2)CC1` (stereo partly specified), the “Anticoccidial Activity” value in the experiment with Eimeria acervulina and in the experiment on Eimeria tenella [2] was above 80% in each case. In experiment [3], this compound gave a pIC50 of 9.07.
`CC(C)OCC(O)CN1CCC(c2cc(-c3ccncc3)c(-c3ccc(F)cc3)[nH]2)CC1` (stereo unspecified): the “Anticoccidial Activity” value in the experiment on Eimeria acervulina and with Eimeria tenella [2] was below 50% each time. In experiment [3], the pIC50 is 9.16.
For the compound `CC(O)[C@@H](CO)N1CCC(c2cc(-c3ccncc3)c(-c3ccc(F)cc3)[nH]2)CC1` (stereo partly specified), the “Anticoccidial Activity” value in the experiment with Eimeria acervulina and in the experiment on Eimeria tenella [2] was above 80% each time. In experiment [3], this compound had a pIC50 of 9.00.
In the case of `CC(=O)OCCN1CCC(c2cc(-c3ccncc3)c(-c3ccc(F)cc3)[nH]2)CC1`, the “Anticoccidial Activity” value in the experiment on Eimeria acervulina and in the experiment on Eimeria tenella [2] was below 50% in each case. This compound gave a pIC50 in experiment [3] of 8.68.
As to `CCCCCCC(O)CN1CCC(c2cc(-c3ccncc3)c(-c3ccc(F)cc3)[nH]2)CC1` (stereo unspecified), the “Anticoccidial Activity” value in the experiment with Eimeria acervulina and in the experiment with Eimeria tenella [2] was below 50% in each case. Further, the pIC50 in experiment [3] is 9.00.
Consider `C[C@@H](O)CN1CCC(c2cc(-c3ccncc3)c(-c3ccc(F)cc3)[nH]2)CC1`, for which the “Anticoccidial Activity” value in the experiment on Eimeria acervulina and in the experiment on Eimeria tenella [2] was above 80% each time. Further, the pIC50 in experiment [3] was 8.92.
Take `OC(COc1ccccc1)CN1CCC(c2cc(-c3ccncc3)c(-c3ccc(F)cc3)[nH]2)CC1` (stereo unspecified): the “Anticoccidial Activity” value in the experiment on Eimeria acervulina and in the experiment on Eimeria tenella [2] was below 50% throughout. The pIC50 in experiment [3] is 9.18.
Regarding `O[C@H]1CNC(CN2CCC(c3cc(-c4ccncc4)c(-c4ccc(F)cc4)[nH]3)CC2)C1` (stereo partly specified), the pIC50 in experiment [3] is 9.80.
As to `CC(O)[C@@H](C)N1CCC(c2cc(-c3ccncc3)c(-c3ccc(F)cc3)[nH]2)CC1` (mixture of isomers), the “Anticoccidial Activity” value in the experiment on Eimeria acervulina and in the experiment on Eimeria tenella [2] was above 80% throughout. The pIC50 in experiment [3] is 9.03.
With `OCC(O)CN1CCC(c2cc(-c3ccncc3)c(-c3ccc(F)cc3)[nH]2)CC1` (stereo in doubt; 5a), the “Anticoccidial Activity” value in the experiment with Eimeria acervulina is below 50%; with Eimeria tenella [2], above 80%. This compound had a pIC50 in experiment [3] of 9.29.
Consider `OCC(O)CN1CCC(c2cc(-c3ccncc3)c(-c3ccc(F)cc3)[nH]2)CC1` (stereo in doubt; 5b), for which the “Anticoccidial Activity” value with Eimeria acervulina is above 80%. The pIC50 in experiment [3] was 9.15.
`OCC(O)CN1CCC(c2cc(-c3ccncc3)c(-c3ccc(F)cc3)[nH]2)CC1` (stereo in doubt; 5e) gave a pIC50 in experiment [3] of 8.90.
